Laboratory results reported in article PMC10893631, “Receptor-based pharmacophore modeling, molecular docking, synthesis and biological evaluation of novel VEGFR-2, FGFR-1, and BRAF multi-kinase inhibitors” (BMC Chemistry, 2024).

Legend:
[1] = biological target: T1, VEGFR-2 (Homo sapiens, UniProt P35968); assay: VEGFR-2 kinase assay kit (BPS), Kinase-Glo Max luminescence; format: biochemical; conditions: VEGFR-2, single dose 10 µM, duplicate, mean ± SD
T1 construct: purchased BPS Biosciences 40325
Description: 2. Biochemical kinase assay procedure
The inhibitory activity against different kinases was determined using kinase kits […]
from BPS Biosciences and kinase-Glo Max luminescence kinase assay kit (Promega).
The assay was carried out according to the protocol provided by the manufacturer. A stock solution of the synthesized derivatives in 100% DMSO was prepared. Subsequently, the compounds were diluted to 10% DMSO.
A master mixture was prepared according to the number of wells. For VEGFR-2 and FGFR-1 biochemical assays each well include 6 μl of 5x Kinase Buffer 1 + 1 μl of 500 μM ATP + 1 μl of PTK Substrate (Poly-Glu,Tyr 4:1) (10 mg/ml) + 17 μl of distilled water. For BRAF assay each well include 6 μl of 5x Kinase Buffer 1 + 1 μl of ATP (500 μM) + 10 μl of 5X Raf substrate + 8 μl of distilled water. 1x Kinase buffer 1 was prepared by mixing 600 μl of 5x Kinase Buffer 1 with 2400 μl water to give 3 mL. Kinases were thawed on ice and were diluted with 1x Kinase Buffer 1.
To start the biochemical reaction, 25 µL of the master mixture was added to each well in 96 well plate. 5 µL of 10% DMSO was added to positive control wells and blank wells. 5 µL of diluted inhibitor was added to each well labelled with the test inhibitor so that the final concentration of DMSO is 1% in all reactions. Then 20 µL of (1 ng / μl) in case of VEGFR-2 and FGFR-1 or (2.5 ng/μl) in case of BRAF in 1x kinase buffer was added to positive control wells and wells labelled with the inhibitor, while 20 µL 1x kinase buffer 1 was added to the […]
The plate was incubated at 30 °C for 45 min. Subsequently, 50 μl of Kinase-Glo Max luminescence reagent was added to each well and the plate was covered with aluminum foil and incubated at room temperature 15 min. Finally, the luminescence was recorded using multimode microplate reader. Kinase activity assays were performed in duplicate at each […]
The luminescence data were analyzed as follows. The difference between luminescence intensities in the absence of kinase (Lut) and in the presence of kinase (Luc) was defined as 100 % activity (Lut – Luc). Using luminescence signal (Lu) in the presence of the compound, % activity was calculated as: % activity = {(Lut - Lu)/(Lut - Luc)}×100%. The […]
concentration of the test compounds required to reduce the kinase activity by 50% was determined from dose-response curves and recorded as their IC50. […]

[2] = tested on: OVCAR-4; assay: NCI SRB growth inhibition (single dose 10 µM / five-dose); format: cell-based, human; conditions: Homo sapiens; for inhibition at 10 µM: OVCAR-4 (Ovarian cancer), read-out: GI%
Description: (§1) Screening of cytotoxic activity against a panel of sixty human tumor cell lines The selected compounds by NCI were evaluated for their anticancer activity in a two- stage process. […] Then, the output from the single dose screen is reported as a mean graph. […] Assay protocol. […] For a typical screening experiment, cells are inoculated into 96 well microtiter plates in 100 µL at plating densities ranging from 5000 to 40,000 cells/well depending on the doubling time of individual cell lines. […] After 24 h, two plates of each cell line are fixed in situ with TCA, to represent a measurement of the cell population for each cell line at the time of drug addition (Tz). The experimental drugs are solubilized in dimethyl sulfoxide at 400-fold the desired final maximum test concentration and stored frozen prior to use. At the time of drug addition, an aliquot of frozen concentrate is thawed and diluted to twice the desired final maximum test concentration with complete medium containing 50 µg/mL gentamicin. Additional four, 10-fold or ½ log serial dilutions are made to provide a total of five drug concentrations plus control. Aliquots of 100 mL of these different drug dilutions are added to the appropriate microtiter wells already containing […] of medium, resulting in the required final drug concentrations. […] For adherent cells, the assay is terminated by the addition of cold TCA. […] The supernatant is discarded, and the plates are washed five times with tap water and air dried. Sulforhodamine B (SRB) solution ([…]) at 0.4% (w/v) in 1% acetic acid is added to each well, and plates are incubated for 10 min at room temperature. After staining, unbound dye is removed by washing five times with 1% acetic acid and the plates are air dried. […] Using the seven absorbance measurements [time zero, (Tz), control growth, (C), and test growth in the presence of drug at the five concentration levels (Ti)], the percentage growth is calculated at each of the drug concentrations levels. Percentage growth inhibition is calculated as: [(Ti Tz)/(C–Tz)] x 100 for concentrations for which Ti>/=Tz and [(Ti-Tz)/Tz] x 100 for concentrations for which Ti < Tz. Three dose response parameters are calculated for each experimental agent. […] The drug concentration resulting in total growth inhibition (TGI) is calculated from Ti = Tz. […] Values are calculated for each of these three parameters if the level of activity is reached; however, if the effect is not reached or is exceeded, the value for that parameter is expressed as greater or less than the maximum or minimum concentration tested.

[3] = tested on: EKVX; assay: as above; format: cell-based, human; conditions: Homo sapiens; for inhibition at 10 µM: EKVX (Non-small cell lung cancer), read-out: GI%
Description: as §1

[4] = tested on: M14; assay: as above; format: cell-based, human; conditions: Homo sapiens; for inhibition at 10 µM: M14 (Melanoma), read-out: GI%
Description: as §1

[5] = tested on: K-562; assay: as above; format: cell-based, human; conditions: Homo sapiens, K562; for inhibition at 10 µM: K-562 (Leukemia), read-out: GI%
Description: as §1

[6] = tested on: SNB-19; assay: as above; format: cell-based, human; conditions: Homo sapiens; for inhibition at 10 µM: SNB-19 (CNS cancer), read-out: GI%
Description: as §1

[7] = tested on: ACHN; assay: as above; format: cell-based, human; conditions: Homo sapiens; for inhibition at 10 µM: ACHN (Renal cancer), read-out: GI%
Description: as §1

[8] = tested on: NCI-H322M; assay: as above; format: cell-based, human; conditions: Homo sapiens; for inhibition at 10 µM: NCI-H322M (Non-small cell lung cancer), read-out: GI%
Description: as §1

[9] = tested on: DU-145; assay: as above; format: cell-based, human; conditions: Homo sapiens; for inhibition at 10 µM: DU-145 (Prostate cancer), read-out: GI%
Description: as §1

[10] = tested on: LOX IMVI; assay: as above; format: cell-based, human; conditions: Homo sapiens; for inhibition at 10 µM: LOX IMVI (Melanoma), read-out: GI%
Description: as §1

[11] = tested on: T-47D; assay: as above; format: cell-based, human; conditions: Homo sapiens, T47D; for inhibition at 10 µM: T-47D (Breast cancer), read-out: GI%
Description: as §1

[12] = tested on: RPMI-8226; assay: as above; format: cell-based, human; conditions: Homo sapiens; for inhibition at 10 µM: RPMI-8226 (Leukemia), read-out: GI%
Description: as §1

[13] = tested on: SK-MEL-2; assay: as above; format: cell-based, human; conditions: Homo sapiens; for inhibition at 10 µM: SK-MEL-2 (Melanoma), read-out: GI%
Description: as §1

T1 sequence (P35968 20-1356): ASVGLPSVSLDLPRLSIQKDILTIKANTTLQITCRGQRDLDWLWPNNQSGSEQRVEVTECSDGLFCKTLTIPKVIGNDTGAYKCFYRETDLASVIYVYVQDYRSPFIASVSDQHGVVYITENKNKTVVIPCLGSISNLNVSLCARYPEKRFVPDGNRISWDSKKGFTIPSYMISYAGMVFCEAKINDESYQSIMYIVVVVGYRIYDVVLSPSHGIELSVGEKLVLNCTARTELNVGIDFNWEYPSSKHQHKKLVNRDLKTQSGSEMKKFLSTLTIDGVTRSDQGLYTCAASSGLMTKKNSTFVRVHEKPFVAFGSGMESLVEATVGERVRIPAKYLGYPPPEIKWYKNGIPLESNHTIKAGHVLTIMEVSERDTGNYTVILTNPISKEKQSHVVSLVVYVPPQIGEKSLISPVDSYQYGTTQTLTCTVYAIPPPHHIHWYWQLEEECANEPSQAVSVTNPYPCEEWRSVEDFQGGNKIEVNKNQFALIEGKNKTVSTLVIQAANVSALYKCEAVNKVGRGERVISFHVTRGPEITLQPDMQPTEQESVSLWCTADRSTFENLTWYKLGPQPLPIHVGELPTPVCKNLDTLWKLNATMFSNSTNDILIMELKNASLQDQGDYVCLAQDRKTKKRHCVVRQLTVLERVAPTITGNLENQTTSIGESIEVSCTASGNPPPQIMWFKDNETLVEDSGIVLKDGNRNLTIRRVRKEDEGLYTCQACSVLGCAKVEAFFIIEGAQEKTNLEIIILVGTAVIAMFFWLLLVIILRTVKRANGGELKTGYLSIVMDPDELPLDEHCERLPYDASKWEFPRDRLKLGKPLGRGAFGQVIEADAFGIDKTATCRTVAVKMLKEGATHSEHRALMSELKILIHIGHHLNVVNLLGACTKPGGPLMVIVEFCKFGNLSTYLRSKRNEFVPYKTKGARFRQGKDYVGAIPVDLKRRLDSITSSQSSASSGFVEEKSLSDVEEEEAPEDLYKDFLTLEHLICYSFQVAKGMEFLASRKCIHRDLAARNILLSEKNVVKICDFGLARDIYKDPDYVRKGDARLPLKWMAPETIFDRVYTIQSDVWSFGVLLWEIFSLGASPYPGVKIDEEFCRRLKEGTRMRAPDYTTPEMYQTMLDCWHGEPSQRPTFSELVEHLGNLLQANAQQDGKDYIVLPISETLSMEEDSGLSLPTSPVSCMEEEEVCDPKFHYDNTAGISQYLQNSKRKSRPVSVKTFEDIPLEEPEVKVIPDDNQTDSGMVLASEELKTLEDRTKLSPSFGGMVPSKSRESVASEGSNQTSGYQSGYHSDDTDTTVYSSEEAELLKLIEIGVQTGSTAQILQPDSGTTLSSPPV

Row | SMILES | inhibition at 10 µM [1] [%] | inhibition at 10 µM [2] [%] | inhibition at 10 µM [3] [%] | inhibition at 10 µM [4] [%] | inhibition at 10 µM [5] [%] | inhibition at 10 µM [6] [%] | inhibition at 10 µM [7] [%] | inhibition at 10 µM [8] [%] | inhibition at 10 µM [9] [%] | inhibition at 10 µM [10] [%] | inhibition at 10 µM [11] [%] | inhibition at 10 µM [12] [%] | inhibition at 10 µM [13] [%] | other results
1 | COc1ccc(-c2nc3cc(C(=O)NN=Cc4cccc(OC)c4)ccc3[nH]2)cc1 [8j, N'-(3-Methoxybenzylidene)-2-(4-methoxyphenyl)-1H-benzo[d]imidazole-5-carbohydrazide] | 15.7 ± 1.41 | > 100 | > 100 | 70.4 | 88.1 | > 100 | > 100 | > 100 | > 100 | > 100 | > 100 | > 100 | 81 | GI50 ([2]; OVCAR-4, Ovarian cancer, five-dose): 2.01 µM; GI50 ([3]; EKVX, Non-small cell lung cancer, five-dose): 2.76 µM; GI50 ([4]; M14, Melanoma, five-dose): 3.42 µM; GI50 ([5]; K-562, Leukemia, five-dose): 6.92 µM; GI50 ([6]; SNB-19, CNS cancer, five-dose): 3.18 µM; GI50 ([7]; ACHN, Renal cancer, five-dose): 4.25 µM; GI50 ([8]; NCI-H322M, Non-small cell lung cancer, five-dose): 3.03 µM; GI50 ([9]; DU-145, Prostate cancer, five-dose): 3.28 µM; GI50 ([10]; LOX IMVI, Melanoma, five-dose): 1.98 µM; GI50 ([11]; T-47D, Breast cancer, five-dose): 2.62 µM; GI50 ([12]; RPMI-8226, Leukemia, five-dose): 4.14 µM; GI50 ([13]; SK-MEL-2, Melanoma, five-dose): 10.6 µM
2 | COc1cccc(C=NNC(=O)c2ccc3[nH]c(-c4ccccc4)nc3c2)c1 [8c, N'-(3-Methoxybenzylidene)-2-phenyl-1H-benzo[d]imidazole-5-carbohydrazide] | 18.5 ± 0.95 | 20.1 | 41.8 | 8.28 | 41.7 | < 5 | < 5 | 6.09 | 18.4 | < 5 | 69.1 | 81.6 | 19.5 | 
